Publication PMC7892475, “C-Terminal Amination of a Cationic Anti-Inflammatory Peptide Improves Bioavailability and Inhibitory Activity Against LPS-Induced Inflammation” (Frontiers in Immunology, 2021)
“Also recorded” adds a separate entry of the source. Ends that are not written are not given here.

What was measured:
[1] = system: LPS-stimulated RAW264.7 cells; test: Anti-inflammatory assay in LPS-stimulated RAW264.7 cells (ELISA of cytokines); assay type: cell-based, mouse; conditions: 10 μg/ml peptide 30 min before 100 ng/ml LPS, 12 h, 37°C, ELISA of supernatant
Experimental: RAW264.7 cells were treated with or without 10 μg/ml peptides for 30 min before the addition of 100 ng/ml LPS (E. coli, O55:B5, Sigma-Aldrich, Germany) and further incubation for 12 h at 37°C After treatment, the concentrations of TNF-α, IL-6, and IL-1β in the cell supernatants were assessed.
(§1) The levels of tumor necrosis factor (TNF)-α, interleukin (IL)-6, and IL-1β in cell culture supernatants and the levels of TNF-α, IL-6, and IL-1β in the serum of mice were detected using commercial ELISA kits (eBioscience, San Diego, USA) according to the manufacturer’s instructions. The levels of serum alanine amino transferase (ALT) and aspartate amino transferase (AST) were detected using commercial reagent kits (Nanjing Jiancheng Bioengineering Institute, Nanjing, China). The activity of myeloperoxidase (MPO) in the liver of mice was detected using an ELISA kit (Boster, Wuhan, China) according to the manufacturer’s instructions.

[2] = system: LPS-stimulated RAW264.7 cells; test: Time of addition experiment (peptide pretreatment, LPS neutralization, post-treatment) in RAW264.7 cells; assay type: cell-based, mouse; conditions: ELISA
Experimental: To identify the mechanisms underlying the anti-inflammatory effects, three different types of treatments were performed as follow.
Briefly, 10 μg/ml peptide was added to the cell culture medium and incubated with cells for 1 h at 37°C Afterwards, the RAW 264.7 cells were washed with PBS and cultured with fresh medium containing 100 ng/ml LPS for 12 h at 37°C. After treatment, TNF-α, IL-6, and IL-1β secretion in the cell supernatants was assessed.
The peptides (10 μg/ml) were incubated with 100 ng/ml LPS directly for 1 h at 37°C. RAW 264.7 cells were stimulated with these mixtures for 12 h at 37°C. Afterwards, the TNF-α, IL-6 and IL-1β levels in the cell supernatants were assessed.
Briefly, 100 ng/ml LPS was added to the cell culture medium and incubated with cells for 1 h at 37°C. Afterwards, the RAW 264.7 cells were washed with PBS and cultured with fresh medium containing 10 μg/ml peptides for 12 h at 37°C. Afterwards, the TNF-α, IL-6, and IL-1β levels in the cell supernatants were assessed.
as §1

[3] = system: TLR4/MD-2 complex; test: Surface plasmon resonance binding; conditions: SPR, Biacore X100, PBS with 0.05% Tween 20, 30 μl/min, 1:1 model, 0 to 10 μM
Experimental: SPR assays were performed using a Biacore X100 instrument (GE Healthcare, Pittsburgh, PA, USA). PBS containing 0.05% Tween 20 was used as the running buffer. The running buffer was continuously passed into the reaction chamber at 30 μl/min. Immobilization of CTP-NH2 on the chip surface was performed according to an amino coupling protocol. […] Running buffer was injected into the empty channel as a reference. To regenerate the chip surface at the end of each experiment, 10 mM Gly-HCl buffer (pH 2.5) was injected. ProteOn manager software (version 2.0) was used to analyze the experimental data. The binding curves were processed for the start injection alignment and baseline. A reference-subtracted sensorgram was then fitted to the curves describing a homogeneous 1:1 model. Data from the protein surfaces were grouped together to fit the association kinetic rate constant (Ka) and the dissociation rate constant (Kd). The equilibrium dissociation constant (KD) for the peptide-TLR4/MD-2 interaction was calculated as follows: […]

[4] = system: RAW264.7 cells; test: Cellular uptake and localization of FITC-labeled peptides (confocal microscopy, flow cytometry); assay type: cell-based, mouse; conditions: N-terminus FITC-labeled peptide, 10 μg/ml, 24 h, 37°C, confocal microscopy and flow cytometry (average FITC intensity)
Experimental: RAW264.7 cells were treated with N-terminus FITC-labeled peptides at 10 μg/ml for 24 h at 37°C; in the dark. Then, the RAW264.7 cells were rinsed with PBS three times, fixed with paraformaldehyde and washed with PBS. The cell nuclei were stained with DAPI (diluted 1:500 in PBS) (Sigma, USA) for 5 min, and the cells were washed with PBS. The above cells were spread on a glass slide, fixed and observed with a Leica TCA sp5 confocal microscope (Germany).
RAW264.7 cells were stained with 10 μg/ml N-terminus FITC-labeled peptides at 37°C in the dark for 24 h. Afterwards, the RAW264.7 cells were harvested and rinsed with PBS five times. The average FITC intensity in the cells was measured via flow cytometry.

[5] = Reverse-phase HPLC retention time as measure of peptide hydrophobicity; assay type: physicochemical; conditions: HPLC on reverse-phase matrix, aqueous solution; used by the paper as measure of hydrophobicity
Text: The retention time of peptides on a reverse-phase matrix has been reported to be related to peptide hydrophobicity ([34]).

[6] = LPS neutralization, chromogenic end-point Tachypleus Amebocyte Lysate (TAL) assay; assay type: binding, E. coli
Experimental: The neutralization of LPS by the peptides was assessed through a quantitative Chromogenic End-point Tachypleus Amebocyte Lysate (CE TAL) assay using a QCL-1000 kit (XIAMEN BIOENDO TECHNOLOGY CO., China). LPS (E. coli, O111:B4, Sigma-Aldrich, USA) at a final concentration of 1.0 U/ml was incubated with various concentrations of the peptides (0 to 64 μg/ml final concentration) at 37°C for 15 min. Afterwards, the mixtures were incubated with TAL assay reagent at 37°C; for 6 min, and the absorbance was measured at 540 nm.

[7] = system: RAW264.7 cells; test: CCK-8 cell viability assay; assay type: cell-based, mouse; conditions: RAW264.7 macrophages, CCK-8, 0 to 80 μg/ml, 24 h or 72 h, 37°C
Experimental: The viability of peptide-treated RAW264.7 cells was determined using a Cell Counting Kit-8 (CCK-8) Assay Kit (Dojindo) ([35]). RAW264.7 cells were plated in 96-well plates at a density of 3×10^4 cells/ml in 100 μl DMEM overnight. The cell culture medium was then supplemented with fresh medium containing candidate peptides in a series of concentrations, and the plates were incubated for another 24 h or 72 h. Each well was incubated with 10 μl CCK-8 solution for 4 h in the dark. Afterwards, the absorbance at 450 nm was measured using a microplate reader. Cell viability was determined by:
Cell viability (%)=(OD450sample/OD450(control))×100%

[8] = target: T1, TLR4/MD-2 complex (Mus musculus, UniProt Q9QUK6); test: SPR
T1 chain 1: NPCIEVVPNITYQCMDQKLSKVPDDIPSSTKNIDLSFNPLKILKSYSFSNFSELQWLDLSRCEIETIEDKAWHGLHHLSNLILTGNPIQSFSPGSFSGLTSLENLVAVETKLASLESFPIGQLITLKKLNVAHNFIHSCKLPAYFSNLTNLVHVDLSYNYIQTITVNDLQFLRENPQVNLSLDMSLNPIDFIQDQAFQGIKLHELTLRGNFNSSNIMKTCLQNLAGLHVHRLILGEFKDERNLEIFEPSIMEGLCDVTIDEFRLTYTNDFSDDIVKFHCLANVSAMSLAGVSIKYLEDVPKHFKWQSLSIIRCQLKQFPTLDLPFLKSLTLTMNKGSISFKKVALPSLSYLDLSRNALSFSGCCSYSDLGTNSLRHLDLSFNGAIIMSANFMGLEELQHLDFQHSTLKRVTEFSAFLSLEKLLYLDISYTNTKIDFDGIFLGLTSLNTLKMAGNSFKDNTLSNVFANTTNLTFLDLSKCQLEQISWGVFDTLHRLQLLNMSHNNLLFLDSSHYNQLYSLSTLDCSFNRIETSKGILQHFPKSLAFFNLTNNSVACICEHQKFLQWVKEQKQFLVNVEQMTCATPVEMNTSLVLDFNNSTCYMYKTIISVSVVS
T1 chain 2: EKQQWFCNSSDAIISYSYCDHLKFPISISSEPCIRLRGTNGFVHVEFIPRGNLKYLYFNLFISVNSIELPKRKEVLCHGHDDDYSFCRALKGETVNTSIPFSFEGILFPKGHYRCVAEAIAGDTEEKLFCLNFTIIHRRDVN

## RWGRFLRKIRRFRRKDVT [CTP]
[1]
  TNF-α, IL-6 and IL-1β secretion levels: enhanced inhibitory activity against LPS-induced inflammation
[2]; 10 μg/ml peptide 1 h then wash and 100 ng/ml LPS 12 h, or LPS 1 h, wash, then peptide 12 h
  TNF-α and IL-6 level, peptide used to pretreat cells or added after LPS induction: scarcely reduced the elevation in the pro-inflammatory cytokines TNF-α; also recorded: barely exerted such effects
[2]; 10 μg/ml peptide incubated with 100 ng/ml LPS 1 h at 37°C, mixture on cells 12 h
  TNF-α and IL-6 release, peptide incubated with LPS: potent inhibition of pro-inflammatory cytokine release
[3]
  Ka (association kinetic rate constant): 1.34e+07 M⁻¹ s⁻¹
[4]
  cellular uptake and localization: rarely entered RAW264.7 cells
[5]
  Retention time: 10.94 min
[6]; LPS 1.0 U/ml with 0 to 64 μg/ml peptide, 37°C 15 min, TAL reagent 6 min, absorbance 540 nm
  50% binding rate value (LPS neutralization): approximately 45.32 ± 5.19 μg/ml
[6]; chromogenic TAL assay, LPS 1.0 U/ml, 0 to 64 μg/ml peptide
  LPS neutralization activity: inhibited activation of LPS in a dose-dependent manner
[7]
  cytotoxicity (comparison in words): lower cytotoxicity than the parental peptide (CATH2) but higher cytotoxicity than TP5

B1: CTP (CATH2(1-13)-TP5 hybrid peptide) (peptide)
chain: RWGRFLRKIRRFRRKDVT
[8]
  Kd: 1400 nM

B2: CTP-NH2 (CATH2(1-13)-TP5 hybrid peptide, C-terminal amide) (peptide)
chain: RWGRFLRKIRRFRRKDVT-NH2
[8]
  Kd: 947 nM
